Data set [1] deals with spontaneous hypertensive rats (SHR). As to the kind of experiment: Systolic blood pressure by tail cuff plethysmography in SHR on a 2.2% salt diet. The data set is classed as in vivo, rat. The source says:
Fourteen week old spontaneous hypertensive rats (SHR; Australian Animal Resources Centre, WA) on a 2.2% salt diet (Glenn Forrest Stockfeeders, WA) were randomized to the following treatment groups: 14-week control, or VB0002 infusion (20 pmol/kg/min in 20% DMSO) or vehicle control infusion (20% DMSO) for 4 weeks. VB0002 and vehicle control infusions were via Alzet osmotic minipump, which was inserted under general anaesthesia (Isoflurane 3% in oxygen) at 14 weeks. […]
(§1) The 14-week control group were anaesthetized using isoflurane (3%) delivered in oxygen, then had blood sampled and hearts and kidneys harvested for quantitation of fibrosis. The remaining groups were weighed and had blood pressure measured by tail cuff plethysmography (ADI Instruments) twice weekly for a further 4 weeks. After 4 weeks treatment, rats were anaesthetized and samples collected as per the 14-week control group. Results are mean±sem for n=5 rats per group.

For data set [2] the test system is unchanged. Description: Myocardial fibrosis quantitation (Masson's Trichrome) in SHR on a 2.2% salt diet. The data set is classed as in vivo, rat. The following applies: 4 weeks.
Excerpt: Fourteen week old spontaneous hypertensive rats (SHR; Australian Animal Resources Centre, WA) on a 2.2% salt diet (Glenn Forrest Stockfeeders, WA) were randomized to the following treatment groups: 14-week control, or VB0002 infusion (20 pmol/kg/min in 20% DMSO) or vehicle control infusion (20% DMSO) for 4 weeks. VB0002 and vehicle control infusions were via Alzet osmotic minipump, which was inserted under general anaesthesia (Isoflurane 3% in oxygen) at 14 weeks.
Fourteen week old spontaneous hypertensive rats on a 2.2% salt diet were also randomized to the following treatment groups: 14-week control, or VB0003 administration (10, 100 or 500 pmol/kg/min in 5% ethanol), VB0005 administration (100 pmol/kg/min in 5% ethanol) or drinking solution (5% ethanol) administration for 4 weeks.
as §1
For quantitation of fibrosis, tissue slices ≤3 mm thick were fixed in 10% buffered formalin for 24 hours, processed and embedded in paraffin. Three μm transverse sections were stained using Masson's Trichrome. A minimum of 20 random fields at 40× magnification from transverse sections ([…]) were digitized. The degree of fibrosis was determined as a percent of field area of each digitized image using Image-Pro Plus V.5 (Media Cybernetics, Bethesda, Md., USA), and then averaged to determine the level of fibrosis for each rat.

Where [3] appears, read: in 5% ethanol in the drinking solution for 4 weeks (FIG. 9:), compared to 18 week controls (p<0.0005).
The mark [4] stands for this setting: 100 pmol/kg/min in drinking solution (5% ethanol), compared to 14 week controls.
Where [5] appears, read: 100 pmol/kg/min in drinking solution (5% ethanol), compared to 18 week controls.

Molecules are shown by their SMILES.

Usually melting point stands for the temperature of the solid-liquid transition.

In turn, `CC(O)Cc1c(-c2ccccc2)ncn1Cc1cccc(O)c1.Cl` (centres unmarked) showed a melting point of 84 to 88 °C.
With `NC(=O)Cc1c(Cc2ccccc2)ncn1Cc1cccc(O)c1` [VB0002, 2-[4-Benzyl-1-(3-hydroxybenzyl)-1H-imidazol-5-yl]acetamide], the melting point was 249 °C (dec.). Also, the Systolic blood pressure entry in data set [1] (in 20% DMSO intravenously via osmotic minipump for 4 weeks, compared to 18 week controls (FIG. 8, p<0.005)) is “reduced”. The Myocardial fibrosis result in data set [2] (20 pmol/kg/min infusion via osmotic minipump, compared to 14 week controls (FIG. 10)) is given as “reduced”. Also, the Myocardial fibrosis result in data set [2] (20 pmol/kg/min infusion via osmotic minipump, compared to 18 week controls (FIG. 10)) was “reduced”.
Regarding `CC(O)Cc1c(-c2ccccc2)ncn1Cc1cccc(O)c1` (centres unmarked) [VB0003, 3-[5-(2-hydroxypropyl)-4-phenyl-imidazol-1-ylmethyl]-phenol], in data set [1] (setting [3]), the Systolic blood pressure entry is on record as “reduced”. Also, the Myocardial fibrosis entry in data set [2] (10 pmol/kg/min in drinking solution (5% ethanol), compared to 18 week controls) is given as “reduced”; in data set [2] (setting [4]), “reduced”; in data set [2] (setting [5]), “reduced”; in data set [2] (500 pmol/kg/min in drinking solution (5% ethanol), compared to 14 week controls), “reduced”; in data set [2] (500 pmol/kg/min in drinking solution (5% ethanol), compared to 18 week controls), “reduced”.
Regarding `NC(=O)CC[C@H]1CN(c2ccccc2)CCN1c1cccc(O)c1` [VB0005, (S)-3-[1-(3-Hydroxy)phenyl-4-phenylpiperazin-2-yl]propanamide], in data set [1] (setting [3]), the Systolic blood pressure result is listed as “reduced”. Further, the Myocardial fibrosis result in data set [2] (setting [4]) and in data set [2] (setting [5]) was “reduced” each time.

For the origin of these results see patent publication US11834417B2, “Compositions for the treatment of hypertension and/or fibrosis” (Vectus Biosystems Limited, priority 2016, dated 2023).
